Source: patent US12017975B2, “Myc-Max inhibitor compound therapeutics for cancer treatment, methods and uses associated therewith” (THE UNIVERSITY OF BRITISH COLUMBIA, priority 2018, dated 2024)
Entries after “also recorded” stand apart in the source; their conditions may differ. Where two headings read alike, the source gives them in different places.

Tests used:
LNCaP cells [1] = assay: LNCaP cell viability (PrestoBlue); type: cell-based; details: Homo sapiens; for IC50: 96 hours, 0-25 μM, read-out: IC50 LNCaP cell proliferation / viability
Procedure: (§1) LNCaP were plated at 5000 cells per well in RPMI 1640 containing 5% CSS in a 96-well plate, treated with test compounds (0-25 μM) for 96 hours. Cell density was measured using the PrestoBlue™ assay according to the manufacturer's protocol. The percentage of cell survival was normalized to the cell density of control wells treated by vehicle. Viability of Myc-negative […] cells was done similarly but in DMEM supplemented with 5% CSS.
(§2) The effect of hit compounds on Myc-driven cell proliferation was evaluated by measuring the cell viability of LNCaP cells after treatment with increasing concentrations of compounds.

[2] = tested on: Myc-Max/UBE2C downstream pathway; assay: UBE2C promoter luciferase reporter assay in 22rv1 cells; type: cell-based; details: for inhibition at 25 µM: Homo sapiens
Procedure: (§3) Cell transfection was performed using TransIT-2020™ transfection reagents according to the manufacturer's instructions (Mirus™). LNCaP cells were plated at 10000 cells per well and treated for 1 day with the indicated concentration of compound. Myc reporter activity was measured using the Cignal Myc Reporter Assay Kit™ from Qiagen™ (#336841) according to the manufacturer's instructions. For the UBE2C reporter assay, 22rv1 cells were plated at 10000 cells per well in 96-well plates in RPMI media supplemented with 5% charcoal-stripped serum (CSS) and treated for 1 day with 1 μM, 10 μM and 25 μM of compound.
Myc inhibition was recently reported to reduce levels of the constitutively active androgen receptor splice variant AR-V7 in 22rv1 cells. […] The dose-dependent reduction of luciferase levels by the identified hits indicates a Myc-related reduction of AR-V7 level in the cells (see TABLE 1). […] The AR-V7 reduction with the hits was confirmed by Western blot (FIG. 2B).

[3] = tested on: Myc-Max transcriptional activity; assay: Cignal c-Myc luciferase reporter assay in LNCaP cells; type: cell-based; details: Homo sapiens
Procedure: as §3
Compounds were subjected to experimental evaluation using the commercially available transcriptional assay Cignal c-Myc luciferase reporter assay in LNCaP cells. […] A transiently transfected Myc-driven luciferase reporter allowed the monitoring of Myc-regulated signal in LNCaP upon treatment with the in silico identified compounds.

[4] = Cell viability of Myc negative (c-Myc knockout) HO15.19 cells; type: cell-based; details: rat, HO15.19 cells (c-Myc knockout, Myc-negative); 25 μM; read-out: % inhibition of Myc negative HO15.19 cells (cytotoxicity)
Procedure: as §1, §2

Myc-Max interaction = target: T1, Myc-Max interaction (Homo sapiens, UniProt P01106); assay: Mammalian two-hybrid assay in PC3 cells; type: cell-based; details: various concentrations
T1 construct: expressed in transfected cells; host or cells: PC3 cells
T1 sequence (P01106 whole entry): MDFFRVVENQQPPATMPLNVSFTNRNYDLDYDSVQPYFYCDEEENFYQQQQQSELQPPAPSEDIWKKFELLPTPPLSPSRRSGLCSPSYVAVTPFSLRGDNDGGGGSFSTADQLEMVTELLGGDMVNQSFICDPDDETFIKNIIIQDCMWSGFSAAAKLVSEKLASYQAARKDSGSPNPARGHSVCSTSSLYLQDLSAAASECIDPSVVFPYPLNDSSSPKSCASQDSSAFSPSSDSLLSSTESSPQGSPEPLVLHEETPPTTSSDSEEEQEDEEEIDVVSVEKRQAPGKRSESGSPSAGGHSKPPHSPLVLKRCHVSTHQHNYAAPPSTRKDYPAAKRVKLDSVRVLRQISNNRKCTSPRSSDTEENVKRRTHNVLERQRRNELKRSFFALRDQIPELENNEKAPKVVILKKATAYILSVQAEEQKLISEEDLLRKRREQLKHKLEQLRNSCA
Procedure: Full lengths Myc and Max were cloned in pBIND and pACT plasmids (CheckMate™, Promega™), respectively. PC3 cells in RPMI 1640 supplemented with 5% FBS were seeded in 96-well plates at 5,000 cells/well. After 24 hours, cells were transfected with 15 ng of pACT-Max, 19.5 ng of pBIND-Myc, and 13.6 ng of the reporter plasmid PG5-luciferase. After 24 hours, cells were treated with various concentrations of the tested inhibitors. Cells were lysed the next day, and the luminescence signal was measured after adding 50 μL of luciferase assay reagent (Promega™). Each measurement was done in 4 replicates with biological replicates of 3. Luciferase levels corresponding to Myc-Max interactions were measured and normalized to a control provided by the commercial kit to discard non-specific effect due to toxicity or direct luciferase inhibition.
The effect of inhibitors of Myc-Max interaction was studied by using a mammalian two hybrid assay. Full lengths Myc and Max were cloned in pBIND and pACT plasmids (CheckMate™, Promega™), respectively. Luciferase levels corresponding to Myc-Max interactions were measured and normalized to a control provided by the commercial kit to discard non-specific effect due to toxicity or direct luciferase inhibition.

Myc-Max complex = target: T2, Myc-Max complex (Homo sapiens, UniProt P01106+P61244); assay: Biolayer interferometry of Myc-Max binding to biotinylated E-box DNA; details: for Myc-Max interaction with immobilized E-box DNA: 500 μM compound (FIG. 3C); for BLI binding: TABLE 2
T2 construct: GST tagged Myc (residues 368-454); Histidine tagged Max (residues 23-102); made in house; host or cells: E. coli BL21-DE3
T2 sequence (P01106 368-454): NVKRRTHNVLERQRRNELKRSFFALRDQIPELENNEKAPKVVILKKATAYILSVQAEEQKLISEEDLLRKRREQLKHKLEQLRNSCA
T2 sequence (P61244 23-102): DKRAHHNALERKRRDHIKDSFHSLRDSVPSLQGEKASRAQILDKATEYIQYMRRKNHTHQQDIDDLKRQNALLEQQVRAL
Procedure: Histidine tagged Max (residues 23-102) and GST tagged Myc (residues 368-454) were overexpressed in E. coli BL21-DE3 cells. Cells were co-lyzed in lysis buffer (20 mM Tris pH 8, 500 mM NaCl, 5% glycerol, 10 mM imidazole, 8 mM BME, 2.1 mM PMSF). After sonication and centrifugation, the complex was first purified by using a Ni-NTA affinity resin. After overnight dialysis to remove the imidazole, the protein sample was applied to a size exclusion chromatography equilibrated with (20 mM Tris pH 8, 150 mM NaCl, 5% glycerol, 0.2 mM TCEP). Fractions containing equal amount of Myc and Max on SDS PAGE were collected and used for the binding assay. The presence of both proteins was validated by Western blot using a specific antibody of each protein (Max (h2) Sc-8011 and c-Myc (9E10) Sc-40, Santa Cruz Biotechnology™)
The direct interaction between biotinylated E-box oligo ([…]) immobilized on a streptavidin biosensor and a purified Myc-Max complex (0.05 mg/ml) was quantified by BLI using OctetRED (ForteBio™). The DNA was first bound to the super-streptavidin sensors over 1000 sec at 25° C. The sensors were next moved into wells containing the reaction buffer (20 mM Tris pH 8, 150 mM NaCl, 5% glycerol, 0.2 mM TCEP, 5% dimethylsulfoxide) for measuring the baseline and next into the Myc-Max complex alone or in presence of the tested inhibitors to study the association of the complex to the DNA.
Direct Binding and disruption of protein-DNA interaction. To study the direct effect of our hit compounds VPC-70063 and VPC-70067 on the interaction between Myc-Max heterodimer and the DNA, we used Bio-Layer Interferometry (BLI, ForteBio™). This technique is a label-free technology allowing the measurement of direct interactions between two partners, one immobilized on a sensor and the other one present in a solution. We applied this technology to study the disruption of the interaction between a biotinylated E-box oligo immobilized on a streptavidin biosensor and a purified Myc-Max complex in presence of our compounds. Therefore, histidine-tagged Max (residues 23-102) and GST tagged Myc (residues 368-454) were overexpressed and co-purified. The fraction containing equal amount of Myc and Max was collected and used for the binding assay (FIG. 3B). The presence of both proteins was validated by Western blot using a specific antibody of each protein. […] Additionally, we tested the ability of our best compound VPC-70063 to disrupt the interaction of MYC/MAX with DNA in a dose dependent manner.

HO15.19 cells = assay: Cell viability of Myc negative (c-Myc knockout) HO15.19 cells; type: cell-based; details: for inhibition at 12 µM: read-out: % inhibition Myc K.O cells (12 uM)
Procedure: as §1, §2

LNCaP cells [5] = assay: PARP cleavage (apoptosis) by Western blot in LNCaP cells; type: cell-based; details: for PARP effect: TABLE 2, LNCaP cells; for PARP cleavage / apoptosis: LNCaP cells, Western blot
Procedure: After 48 hours of treatment with Myc compounds, LNCaP cells were lysed, and protein sample preparation followed by Western blotting were performed. Blots were incubated with primary antibodies against c-Myc, PARP (Sigma™ 084M4766V), PARP cleaved-Asp214 (Sigma™ SAB4500487) and β-Actin (Sigma™ A2066) overnight at 4° C., followed by appropriate peroxidase-conjugated secondary antibodies. β-actin served as an internal control. Visualization of the immunocomplexes was done by an enhanced chemiluminescence detection system (Millipore™) followed by exposure to X-ray films.
Apoptosis. Myc inhibition induces cell death by cell cycle arrest and apoptosis. Cleavage of PARP-1 by caspases is considered a hallmark of apoptosis and so we measured the ability of compounds to induce PARP cleavage after treatment.

[6] = LNCaP, 24 h, LNCaP cells, TABLE 1, read-out: Myc-Max transcriptional activity % inhibition (25 μM)
[7] = LNCaP, TABLE 3, read-out: % Inhibition 25 μM
[8] = LNCaP, TABLE 2, assay not named, values match Myc-Max transcriptional activity, read-out: IC50
[9] = LNCaP cells, dose response, Cignal c-Myc kit, read-out: IC50 Myc-Max transcriptional activity
[10] = LNCaP, TABLE 4, read-out: % Inhibition (25 μM)

| SMILES | IC50 (LNCaP cells [1]) | IC50 [3, 8] | BLI binding (Myc-Max complex) | inhibition at 25 µM [2] | inhibition at 25 µM [3, 6] | inhibition at 25 µM [3, 7] | inhibition at 12 µM (HO15.19 cells; Rattus norvegicus, HO15.19) | PARP effect (LNCaP cells [5]) | further results |
| --- | --- | --- | --- | --- | --- | --- | --- | --- | --- |
| CCc1ccc(/C=C2\SC(=S)NC2=O)cc1 [Compound 10058-F4, [Z,E]-5-[4-ethylbenzylidine]-2-thioxothiazolidin-4-one, reference compound] | 18.3 µM | – | – | 70% | – | – | – | – | – |
| O=[N+]([O-])c1ccc(Nc2ccccc2-c2ccccc2)c2nonc12 [Compound 10074-G5, reference compound] | 8.7 µM | – | – | – | 88% | – | – | – | inhibition at 96 h, 25 µM [4]: 37%; effect on Myc-Max interaction (Myc-Max interaction): did not show any effect; Myc-Max interaction with immobilized E-box DNA (Myc-Max complex): prevented from interacting with the immobilized DNA |
| CN1C(=O)/C(=C\C=C\c2ccco2)SC1=S [VPC-70064] | – | – | – | 64% | 78% | – | – | – | inhibition at 25 µM [3, 10]: 78% |
| O=C1NC(=S)S/C1=C\c1ccccc1C(F)(F)F [VPC-70067] | 11.1 µM | 22 µM | strong | 71% | 98% | – | 3% | good | inhibition at 25 µM [3, 10]: 98%; IC50 [3, 9]: 22.7 µM; PARP cleavage / apoptosis (LNCaP cells [5]): inducing PARP cleavage; Myc-Max interaction with immobilized E-box DNA (Myc-Max complex): prevented from interacting with the immobilized DNA |
| CC(C)(C)[C@H]1CCc2sc(C(=O)N3CCC(C(N)=O)CC3)cc2C1 [VPC-70068] | – | – | – | 58% | 73% | 73% | – | average | – |
| O=C(CCc1c[nH]c2ccccc12)Nc1nc2ccccc2[nH]1 [VPC-70223] | – | 10 µM | – | – | – | 103% | 40% | – | – |

Second part, led by results:

| IC50 (LNCaP cells [1]) | IC50 [3, 8] | BLI binding (Myc-Max complex) | SMILES | inhibition at 25 µM [2] | inhibition at 25 µM [3, 6] | inhibition at 25 µM [3, 7] | inhibition at 12 µM (HO15.19 cells; Rattus norvegicus, HO15.19) | PARP effect (LNCaP cells [5]) | further results |
| --- | --- | --- | --- | --- | --- | --- | --- | --- | --- |
| – | 10 µM | average | NC(=O)c1ccsc1NC(=O)Nc1cccc(C(F)(F)F)c1 [VPC-70021] | 73% | 95% | 95% | 0% | nil | IC50 [3, 9]: 8.5 µM |
| – | 10 µM | weak | CC(=O)Nc1ccc(Nc2cc(Cl)c(C(F)(F)F)cc2[N+](=O)[O-])cc1 [VPC-70033] | 51% | 81% | 81% | – | nil | – |
| – | 11 µM | – | S=C(NCc1ccc(Cl)c(Cl)c1)Nc1cccnc1 [VPC-70053] | 50% | 73% | 73% | – | – | – |
| 2.5 µM | 9 µM | strong | FC(F)(F)c1cc(NC(=S)NCc2ccccc2)cc(C(F)(F)F)c1 [VPC-70063, 1-benzyl-3-(3,5-bis(trifluoromethyl)phenyl)thiourea] | 94% | 106% | 106% | 35% | strong | IC50 [3, 9]: 8.9 µM; inhibition at 3 µM (LNCaP cells [1]; 3 μM, read-out: % of LNCaP cells inhibited): 70%; effect on c-Myc knockout cells (HO15.19 cells; 3 μM): no significant effect; inhibition at 2.5 µM (HO15.19 cells; Rattus norvegicus, HO15.19, 2.5 μM (IC50 in LNCaP cells)): ~7%; inhibition at 96 h, 25 µM [4]: 40%; effect on Myc-Max interaction (Myc-Max interaction): dose response inhibition of the interaction between the two proteins; PARP cleavage / apoptosis (LNCaP cells [5]): inducing PARP cleavage; also recorded: induces apoptosis; reduction of UBE2C promotor activity [2]: highest reduction of UBE2C promotor activity; Myc-Max interaction with immobilized E-box DNA (Myc-Max complex): prevented from interacting with the immobilized DNA; effect on Myc-Max/DNA complex dissociation (Myc-Max complex; concentration below 100 μM): did not see any significant effect; MYC/MAX binding to DNA (Myc-Max complex; concentration higher than 100 μM): dose response decrease of the MYC/MAX binding to DNA |
| – | 1 µM | weak | O=C(NNc1ccc(C(F)(F)F)cc1[N+](=O)[O-])c1cnccn1 [VPC-70127] | – | – | – | 19% | strong | inhibition at 25 µM ([3]; LNCaP, TABLE 6, read-out: % Inhibition 25 μM): 106% |
| – | 20 µM | – | O=C(NCc1cnn(Cc2ccccc2)c1)[C@@H]1COc2ccccc2O1 [VPC-70215] | – | – | 101% | 29% | weak | – |
